Reference: patent US8440592B2, “Use of abscisic acid combinations for thinning” (Valent BioSciences Corporation, priority 2007, dated 2013)

Experiments:
Empire apple trees = experiment: Example 5: crop load and fruit size of Empire apple trees; format: in vivo; details: 100 ppm BA or mixture of 100 ppm BA and 1000 ppm ABA; sprayed at 8 mm fruit size; harvested at maturity
Procedure: Empire apple trees were selected for tree size and uniformity of bloom. Treatments were applied to five replicate trees per treatment when the average fruit size was 8 mm. BA at 100 ppm was applied as a dilute solution sprayed on whole trees to the drip point on five trees. […] Five trees were left untreated to act as control trees. At the end the season when the fruit were mature all the fruit were harvested and the number of fruit per tree and the average fruit size were determined.

[1] = tested on: Pioneer McIntosh apple trees; experiment: Example 4: fruit set of Pioneer McIntosh apple trees after BA and ABA sprays; format: in vivo; details: 75 ppm BA whole-tree spray, 300 ppm ABA on tagged limbs, or sequential BA then ABA, applied at 9 mm fruit size; for % Fruit Set: counted after June drop
Procedure: Pioneer McIntosh apple trees were selected for uniformity of bloom and 2 limbs per tree were tagged and all blossom clusters on the tagged limbs were counted. Treatments were applied to four replicate trees per treatment when the average fruit size was 9 mm. BA at 75 ppm was applied as a dilute solution sprayed on whole trees to the drip point on two of the four trees in each replication. […] The solution was shaken and then allowed to sit for 5 minutes. […] The fourth tree in each block received no spray and served as the control. At the end of the June drop period in July, all fruit on the tagged limbs was counted and recorded.

Cabernet Franc grapes [2] = experiment: Example 1: dipping Cabernet Franc flower clusters at full bloom, berry number and cluster compactness; format: in vivo, grape; details: clusters dipped at full bloom; 10 ppm GA3, 300 ppm ABA or both together; harvested at commercial maturity; n = 10 clusters
Procedure: One cluster was tagged and treated with each of the treatments on each of 10 vines. The clusters were harvested at commercial maturity. Cluster compactness was assessed by counting the number of berries per cluster and measuring the total rachis length of each cluster and then calculating the number of berries per cm of rachis.

Cabernet Franc grapes [3] = experiment: Example 2: dipping Cabernet Franc flower clusters at full bloom, berry number and cluster compactness; format: in vivo, grape; details: clusters dipped at full bloom; 300 ppm ABA, 10 ppm GA3 or 300 ppm ABA mixed with 10 ppm GA3; n = 10 clusters
Procedure: One cluster was tagged and treated with each of the treatments on each of 10 vines. The clusters were harvested at commercial maturity and berry number and cluster compactness were evaluated.

[4] = tested on: European seedless cucumber (var. Flamingo) plants; experiment: Example 6: foliar spray with ABA, abortion of cucumber fruits; format: in vivo; details: ABA 100 ppm sprayed to drip at 20 node growth stage
Procedure: European seedless cucumber (var. Flamingo) plants were grown in a greenhouse.

Thompson Seedless grape = experiment: Example 3: spraying Thompson Seedless grape vines, bunch compactness at harvest; format: in vivo; details: sprayed twice, at 70% bloom and 100% bloom
Procedure: The applications were made twice, once at 70% bloom and once at 100% bloom. Grape bunch compactness was rated at harvest and the average bunch mass and the average number of berries per gram of rachis was determined.

Compound	Average Fruit Weight (Empire apple trees)	Number of Fruit per Tree (Empire apple trees)	Average Fruit Weight [1]	% Fruit Set [1]	Number of berries per cluster (Cabernet Franc grapes [2])	Number of berries per cm rachis (Cabernet Franc grapes [2])	Number of berries per cluster (Cabernet Franc grapes [3])	Number of berries per cm rachis (Cabernet Franc grapes [3])	Rate of fruit abortion compared to the control plants [4]	Percentage of basal 18 cucumber fruits per plant that aborted ([4]; greenhouse, n = 5 replicate plants)	Bunch Compactness (Thompson Seedless grape; rating scale 1 = very loose bunch, 5 = very tight bunch, rated at harvest)	Average bunch mass (Thompson Seedless grape; at harvest)	Average number of berries per gram of rachis (Thompson Seedless grape; at harvest)
c1ccc(CNc2ncnc3nc[nH]c23)cc1 [BA, benzyladenine]	123 g	137	190 g	75%									
(S)-5-(1-hydroxy-2,6,6,-trimethyl-4-oxo-2-cyclohexen-1-yl)-3-methyl-(2Z,4E)-pentadienoic acid [ABA]			146 g	25%	53.0	1.87	54.3	2.0	twice	68%			
gibberellic acid [GA3]					34.8	1.33	37.6	1.35			2.3	830 g	5.7
